Experimental data: paper PMC11219871, “Epigenetic-based differentiation therapy for Acute Myeloid Leukemia” (Nature Communications, 2024)
Several values for one entry are separate records, joined by “and”; a condition that tells them apart may be missing. Equal entries are not always repeated. Where two headings read alike, the source gives them in different places.

How the values were obtained:
[1] = Cryopreserved hepatocyte stability; type: in vitro ADME; details: read-out: Liver Hepatocytes Estimation T1/2
Description: This study was conducted at Wuxi (http://www.wuxi.com/). […] Stock solutions of test compound (10 mM; 100% DMSO) and positive controls (7-ethoxycoumarin and 7-hydroxycoumarin; 30 mM; 100% DMSO) were diluted to 1 mM and 3 mM with DMSO and then diluted to 100 μM and 300 μM with acetonitrile (dosing solutions). Cryopreserved cells (from Human Donors, Bioreclamation IVT, Cat No. X008001 and from male C57 Mice, Bioreclamation IVT, Cat No. S00463) were thawed, isolated and suspended in Williams’ Medium E, then diluted with pre-warmed Williams’ Medium E to 0.5 × 10^6 cells/mL. Cell viability was tested by trypan blue exclusion after thawing. A volume of 2 μL of dosing solution and 198 μL of pre-warmed cell suspensions were added to a 96-well plate and incubated at 37 °C (5% CO2) with constant shaking at 600 rpm. Following different incubation times (0, 15, 30, 60 and 90 min), 20 μL of each sample was transferred to a well containing 80 μL of ice-cold stop solution (acetonitrile containing 200 ng/mL tolbutamide and 200 ng/mL labetalol as internal standards). Plates were vortexed at 27 g for 10 min and then centrifuged at 3220 × g for 20 min at 4 °C. An aliquot of supernatant (75 μL) was transferred from each well and mixed with 75 μL of ultra-pure water before submitting to LC-MS/MS analysis. Concentrations of test and control compounds were quantified by LC-MS/MS using a peak area ratio of analyte/internal standard, and the percent loss of the parent compound was calculated at each time point to determine the half-life (t1/2, min). Experiments were performed in duplicate.

Cytotoxicity (LC50) = type: cell-based; details: human, PBMCs from healthy donors, 72-h exposure
HDAC11 = molecular target: T1, HDAC11 (Homo sapiens, UniProt Q96DB2); assay: HDAC11 Eurofins assay; type: biochemical
T1 sequence (Q96DB2 1-347): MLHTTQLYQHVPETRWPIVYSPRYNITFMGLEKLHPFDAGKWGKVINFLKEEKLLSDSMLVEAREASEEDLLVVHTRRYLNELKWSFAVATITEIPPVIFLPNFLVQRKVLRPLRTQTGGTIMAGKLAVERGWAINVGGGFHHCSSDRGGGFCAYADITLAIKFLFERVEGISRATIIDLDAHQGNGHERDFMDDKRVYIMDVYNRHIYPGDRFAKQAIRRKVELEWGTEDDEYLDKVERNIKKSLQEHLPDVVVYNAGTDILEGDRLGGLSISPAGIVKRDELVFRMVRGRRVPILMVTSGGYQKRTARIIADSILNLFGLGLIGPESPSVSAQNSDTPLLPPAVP

[2] = system: MV4-11 xenograft in BALB/cA Rag2-/-γc-/- mice; assay: Subcutaneous xenograft model (tumor volume, CD11b q-PCR, H3Ac, body weight); type: in vivo, mouse; details: for CD11b expression in explanted tumors / H3Ac levels in tumors / tumor growth: MV4-11 s.c.; for CD11b expression in explanted tumors / H3Ac levels in tumors: 10 mg/kg i.p.; for tumor growth: 10 mg/kg i.p. daily, 2 weeks; for Tumor volume: MV4-11 subcutaneous xenograft, in mm³; for Tumor volume / body weight of mice: individual mice; for Relative H3Ac/H3 total levels: after in vivo treatment, subcutaneous MV4-11 mouse model, western blot; for Relative H3Ac/H3 total levels / CD11b expression, log10 (2-ΔΔCt): individual tumors; for body weight of mice: subcutaneous MV4-11 AML mouse model; for CD11b expression, log10 (2-ΔΔCt): tumors of the subcutaneous MV4-11 model, q-PCR
Description: The subcutaneous xenograft models of ML-2 and MV4-11 derived cells, 5 × 10^6 and 10 × 10^6 cells, respectively, diluted in 100 µL of saline solution were subcutaneously inoculated in the back left flank of female BALB/cA Rag2^−/−γc^−/− mice. When tumors became palpable, the mice were randomized into three groups: vehicle, CM-444 and CM-1758, (eight animals/group). Treatment with 10 mg/kg of CM-444 or CM-1758 i.p. was started 4 days after injection when all mice presented subcutaneous tumors and was administered for 5 consecutive days followed by 2 resting days over 3 weeks for the ML-2 model or daily for 2 weeks for the MV4-11 model. The control group received only 80% saline solution, 10% DMSO […] 10% Tween 20 (diluents of CM-444 and CM-1758). Tumor size was analyzed every 2–3 days using the following method: […], where D and d corresponded to the longest and shortest diameter, respectively. The maximal tumor size/burden permitted by the Animal Care and Ethics Committee of the University of Navarra is 2000 mm^3. This maximal tumor size/burden was not exceeded in any case. ML-2 and MV4-11 tumors were explanted for differentiation and global histone acetylation analysis. Histones were extracted, and a western blot of H3Ac was performed as described above. For the differentiation study, RNA was extracted, and q-PCR of CD11b was performed as described above (CD11b sequence primer can be found in Supplementary Table 10).

HDAC10 = molecular target: T2, HDAC10 (Homo sapiens, UniProt Q969S8); assay: HDAC assay (Eurofins); type: biochemical
T2 construct: purchased Eurofins (contracted assay service)
T2 sequence (Q969S8 1-669): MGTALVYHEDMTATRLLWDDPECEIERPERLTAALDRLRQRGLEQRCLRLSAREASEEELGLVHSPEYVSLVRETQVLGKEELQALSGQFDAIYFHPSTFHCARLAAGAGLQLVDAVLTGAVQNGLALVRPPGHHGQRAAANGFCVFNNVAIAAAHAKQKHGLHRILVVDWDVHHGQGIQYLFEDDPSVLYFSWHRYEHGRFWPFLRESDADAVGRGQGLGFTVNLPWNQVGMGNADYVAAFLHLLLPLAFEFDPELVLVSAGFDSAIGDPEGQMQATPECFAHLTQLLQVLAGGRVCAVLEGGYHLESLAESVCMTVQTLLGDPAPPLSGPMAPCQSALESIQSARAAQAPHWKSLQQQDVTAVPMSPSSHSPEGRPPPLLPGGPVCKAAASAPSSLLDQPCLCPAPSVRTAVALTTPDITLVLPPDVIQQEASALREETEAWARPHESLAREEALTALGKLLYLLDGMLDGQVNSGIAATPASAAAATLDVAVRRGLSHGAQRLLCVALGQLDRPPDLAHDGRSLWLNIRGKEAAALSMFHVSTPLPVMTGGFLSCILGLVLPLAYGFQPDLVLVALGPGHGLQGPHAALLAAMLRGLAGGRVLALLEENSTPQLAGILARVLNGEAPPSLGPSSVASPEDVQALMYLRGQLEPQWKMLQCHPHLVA

[3] = cryopreserved hepatocytes, Human
[4] = male, C57, cryopreserved hepatocytes, Mouse

Question: Which half-life at 1 µM [1, 3] does the source give for COc1cc2nc(-c3ccc(C)o3)cc(NCC3CCN(c4ncc(C(=O)NO)cn4)CC3)c2cc1OC [CM-444, 2-[4-[[[6,7-dimethoxy-2-(5-methyl-2-furyl)-4-quinolyl]amino]methyl]-1-piperidyl]pyrimidine-5-carbohydroxamic acid] here?
Answer: 71.1 min

Question: What about the half-life at 1 µM [1, 4] of the same compound?
Answer: 22.8 min

Question: What about the CC50 at 72 h (Cytotoxicity (LC50)) of the same compound?
Answer: 1240 nM

Question: And the IC50 (HDAC11)?
Answer: 140 nM

Question: What about the “CD11b expression in explanted tumors” value [2] of the same compound?
Answer: significant increase in CD11b expression

Question: What about the “H3Ac levels in tumors” value [2] of the same compound?
Answer: increase in H3Ac levels

Question: And the tumor growth [2]?
Answer: very close to significance

Question: And the Tumor volume ([2]; day 0)?
Answer: 0

Question: And the Tumor volume ([2]; day 7)?
Answer: 3.193

Question: And the Tumor volume ([2]; day 9)?
Answer: 111.805 and 139.808 and 128.905 and 58.5153 and 61.4614 and 71.8536 and 82.1349 and 57.0445 and 0 and 108.84

Question: And the Tumor volume ([2]; day 12)?
Answer: 294.457 and 409.686 and 535.985 and 179.87 and 403.211 and 161.575 and 360.839 and 457.558 and 8.3776 and 264.463

Question: And the Tumor volume ([2]; day 14)?
Answer: 459.841 and 410.79 and 840.745 and 257.398 and 607.597 and 355.301 and 487.51 and 302.43 and 18.6928 and 395.414

Question: And the “Relative H3Ac/H3 total levels” value [2]?
Answer: 0.9852 and 1.143 and 1.277 and 1.092 and 1.163 and 1.09

Question: What about the “body weight of mice” value ([2]; day 1) of the same compound?
Answer: 21.9 and 20.2 and 23.1 and 24.4 (2×) and 23 and 20.9 and 24.3 and 21.3 and 23.6

Question: And the “body weight of mice” value ([2]; day 5, in g (unit assumed))?
Answer: 20.4 and 18.7 and 20.7 and 21.6 and 21.5 and 19 and 21.7 and 18.8 and 21.2 and 21

Question: And the “body weight of mice” value ([2]; day 7)?
Answer: 20.3 and 18.1 and 19.6 (2×) and 20.5 and 18.3 and 21.6 and 18.4 and 21 and 20.7

Question: And the “body weight of mice” value ([2]; day 9)?
Answer: 20.7 (2×) and 19.1 (2×) and 20.2 and 19.2 and 20.4 (2×) and 18.9 and 20.6

Question: What about the “body weight of mice” value ([2]; day 12) of the same compound?
Answer: 22.2 (2×) and 19.1 and 21.6 and 20 and 22.4 and 20.6 and 23 and 20.1 and 22.6

Question: And the “body weight of mice” value ([2]; day 14)?
Answer: 22.1 (2×) and 19.1 and 20.3 and 22.6 (3×) and 20.9 and 23.1 and 19.5

Question: What about the “body weight of mice” value ([2]; day 16) of the same compound?
Answer: 21 (2×) and 19.6 and 22 and 21.9 and 20.1 and 24.8 and 20.6 and 22.3 (2×)

Question: What about the “CD11b expression, log10 (2-ΔΔCt)” value [2] of the same compound?
Answer: 1.258 and 2.58 and 3.158 and 0.925

Question: And the IC50 (HDAC10)?
Answer: 15 nM

Question: And the inhibition at 10 µM (HDAC10)?
Answer: 96%

Question: Which results are given for COc1cc2nc(-c3cc(C)oc3C)cc(NCC3CCN(c4ncc(C(=O)NO)cn4)CC3)c2cc1OC [CM-1758, 2-[4-[[[2-(2,5-dimethyl-3-furyl)-6,7-dimethoxy-4-quinolyl]amino]methyl] -1-piperidyl]pyrimidine-5-carbohydroxamic acid]?
Answer: half-life at 1 µM [1, 3]: 92.1 min; half-life at 1 µM [1, 4]: 19.5 min; CC50 at 72 h (Cytotoxicity (LC50)): 2410 nM; IC50 (HDAC11): 150 nM; CD11b expression in explanted tumors [2]: significant increase in CD11b expression; H3Ac levels in tumors [2]: increase in H3Ac levels; tumor growth [2]: inhibited tumor growth significantly; Tumor volume ([2]; day 0): 0; Tumor volume ([2]; day 7): 3.017; Tumor volume ([2]; day 9): 146.917 and 71.6651 and 143.551 and 106.303 and 28.6195 and 85.1833 and 49.7152 and 104.914 and 63.9744 and 234.732; Tumor volume ([2]; day 12): 419.824 and 122.408 and 229.873 and 238.093 and 102.721 and 299.024 and 103.513 and 178.679 and 140.065 and 433.026; Tumor volume ([2]; day 14): 415.95 and 158.115 and 375.793 and 401.985 and 154.443 and 348.449 and 102.044 and 262.858 and 231.325 and 547.206; Relative H3Ac/H3 total levels [2]: 1.267 and 1.234 and 1.332 and 1.244 and 1.416 and 1.49; body weight of mice ([2]; day 1, in g (unit assumed)): 23.6 and 18.5 and 22.2 and 22.3 and 23.2 and 21.8 and 24.2 and 20.2 and 19.5 and 21.3; body weight of mice ([2]; day 5): 21.3 and 16.3 and 21.5 (2×) and 21.2 and 22.1 and 23 and 20 (2×) and 20.2; body weight of mice ([2]; day 7): 20.5 and 16.4 and 21.3 and 21.6 and 20.8 and 23.9 and 19.5 (2×) and 19.3 and 19.8; body weight of mice ([2]; day 9, in g (unit assumed)): 21 and 17.1 and 21.6 and 21.1 and 21.7 and 20.2 and 23.4 and 19.3 and 19.8 and 20.4; body weight of mice ([2]; day 12, in g (unit assumed)): 21.3 and 18 and 22.5 and 21.9 and 22.2 and 21.8 and 23.6 and 19.9 and 20.4 and 21.5; body weight of mice ([2]; day 14): 21.4 and 17.3 and 21.1 and 21.6 (2×) and 21.8 and 23.6 and 20 and 20.5 and 21; body weight of mice ([2]; day 16): 22.2 (2×) and 18.1 and 21.8 and 21.5 and 22.3 and 24.4 and 20.3 and 20.9 and 21.7; CD11b expression, log10 (2-ΔΔCt) [2]: 0.854 and 1.2584 and 2.36 and 1.145 and 1.034; IC50 (HDAC10): 29 nM; inhibition at 10 µM (HDAC10): 98%
